What was measured:
Settings in all cases: Hit No
[1] = target: N-glycosylase/DNA lyase (Homo sapiens) (UniProt O15527);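 note: OGG1 cleavage of a quenched duplex DNA oligonucleotide, coupled to APE1 for strand incision, read as fluorescence at 594 nm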
Description: Inhibition of OGG1 by quantifying inhibition of OGG1-mediated cleavage and dissociation of quenched duplex DNA oligonucleotides, measured as fluorescence at 594 nm. To generate a functional strand incision and increase turn-over this assay is coupled to APE1.

[2] = target: Endonuclease 8-like 1 (Homo sapiens) (UniProt Q96FI4);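 note: fluorescence at 594 nm from quenched duplex DNA oligonucleotides released by NEIL1 cleavage and strand separation, reported as reduction of this enzyme activity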
Description: Inhibition of NEIL1 by quantifying inhibition of NEIL1-mediated cleavage and dissociation of quenched duplex DNA oligonucleotides, measured as fluorescence at 594 nm.

[3] = target: Methyl-CpG-binding domain protein 4 (Homo sapiens) (UniProt O95243);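 note: MBD4 activity read as fluorescence at 594 nm from cleavage and release of a quenched duplex DNA oligonucleotide, with APE1 coupled to incise the strand and raise turnover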
Chain of Methyl-CpG-binding domain protein 4 (Homo sapiens) (O95243 whole entry, the tested form may be a part): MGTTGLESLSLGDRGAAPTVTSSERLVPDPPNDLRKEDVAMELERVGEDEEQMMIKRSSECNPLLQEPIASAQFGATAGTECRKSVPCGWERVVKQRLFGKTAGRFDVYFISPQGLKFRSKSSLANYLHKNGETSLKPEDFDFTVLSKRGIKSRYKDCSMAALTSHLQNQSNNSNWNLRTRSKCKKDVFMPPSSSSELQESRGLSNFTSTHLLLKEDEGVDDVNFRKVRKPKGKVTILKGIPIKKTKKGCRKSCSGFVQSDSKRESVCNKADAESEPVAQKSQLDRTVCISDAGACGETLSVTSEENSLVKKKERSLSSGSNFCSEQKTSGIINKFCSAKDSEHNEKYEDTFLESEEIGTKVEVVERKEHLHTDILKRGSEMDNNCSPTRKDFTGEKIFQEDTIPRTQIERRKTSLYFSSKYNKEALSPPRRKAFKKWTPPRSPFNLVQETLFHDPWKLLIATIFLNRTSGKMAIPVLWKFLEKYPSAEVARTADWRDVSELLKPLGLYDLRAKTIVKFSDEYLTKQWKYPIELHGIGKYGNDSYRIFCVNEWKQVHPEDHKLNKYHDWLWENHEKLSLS
Description: Inhibition of MBD4 by quantifying inhibition of MBD4-mediated cleavage and dissociation of quenched duplex DNA oligonucleotides, measured as fluorescence at 594 nm. To generate a functional strand incision and increase turn-over this assay is coupled to APE1.

[4] = target: Uracil-DNA glycosylase (Homo sapiens) (UniProt P13051);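 note: UNG excision on a quenched double-stranded DNA oligo probe, with APE1 added for strand incision and turnover, read as fluorescence at 594 nm as strands separate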
Chain of Uracil-DNA glycosylase (Homo sapiens) (P13051 whole entry): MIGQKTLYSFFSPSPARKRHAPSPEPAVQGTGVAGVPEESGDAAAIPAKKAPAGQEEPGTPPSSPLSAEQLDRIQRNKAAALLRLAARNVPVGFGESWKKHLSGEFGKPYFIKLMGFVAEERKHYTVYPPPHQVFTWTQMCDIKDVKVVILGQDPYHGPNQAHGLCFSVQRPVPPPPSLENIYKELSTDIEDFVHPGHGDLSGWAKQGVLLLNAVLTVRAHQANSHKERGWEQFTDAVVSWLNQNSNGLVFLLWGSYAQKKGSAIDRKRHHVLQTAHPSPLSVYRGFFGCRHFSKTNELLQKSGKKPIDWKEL
Description: Inhibition of UNG by quantifying inhibition of UNG-mediated cleavage and dissociation of quenched duplex DNA oligonucleotides, measured as fluorescence at 594 nm. To generate a functional strand incision and increase turn-over this assay is coupled to APE1.

[5] = target: T1, Endonuclease 8-like 2 (Homo sapiens) (UniProt Q969S2);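 note: fluorescence at 594 nm reports NEIL2 cutting and release of a quenched double-stranded DNA oligo substrate, reduced signal read as inhibition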
T1 sequence (whole entry): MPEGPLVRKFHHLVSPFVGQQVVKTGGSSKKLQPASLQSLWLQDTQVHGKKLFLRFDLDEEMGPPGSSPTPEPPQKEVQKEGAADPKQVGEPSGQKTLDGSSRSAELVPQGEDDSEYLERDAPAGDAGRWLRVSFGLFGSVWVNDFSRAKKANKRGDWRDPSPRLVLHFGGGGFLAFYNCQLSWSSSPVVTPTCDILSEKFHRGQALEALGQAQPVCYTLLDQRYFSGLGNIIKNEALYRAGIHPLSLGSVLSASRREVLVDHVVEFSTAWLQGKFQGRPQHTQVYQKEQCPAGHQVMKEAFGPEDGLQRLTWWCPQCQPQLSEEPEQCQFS
Description: Inhibition of NEIL2 by quantifying inhibition of NEIL2-mediated cleavage and dissociation of quenched duplex DNA oligonucleotides, measured as fluorescence at 594 nm.

[6] = target: T2, Single-strand selective monofunctional uracil DNA glycosylase (Homo sapiens) (UniProt Q53HV7);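 note: enzymatic SMUG1 assay coupled with APE1, reading fluorescence at 594 nm released when a quenched double-stranded DNA oligonucleotide substrate is cleaved and separated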
T2 sequence (whole entry): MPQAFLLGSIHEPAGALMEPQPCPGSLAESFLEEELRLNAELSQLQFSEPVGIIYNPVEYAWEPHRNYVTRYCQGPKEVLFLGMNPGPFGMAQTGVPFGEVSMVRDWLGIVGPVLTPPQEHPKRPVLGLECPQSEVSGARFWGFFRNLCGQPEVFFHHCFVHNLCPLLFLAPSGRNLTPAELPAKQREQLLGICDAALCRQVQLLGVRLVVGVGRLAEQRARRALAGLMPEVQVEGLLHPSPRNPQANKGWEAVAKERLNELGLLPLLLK
Description: Inhibition of SMUG1 by quantifying inhibition of SMUG1-mediated cleavage and dissociation of quenched duplex DNA oligonucleotides, measured as fluorescence at 594 nm. To generate a functional strand incision and increase turn-over this assay is coupled to APE1.

[7] = target: T3, Adenine DNA glycosylase (Homo sapiens) (UniProt Q9UIF7);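 note: human MUTYH activity read as 594 nm fluorescence from cleavage and release of a quenched DNA duplex, coupled with APE1 for strand incision, lower signal meaning inhibition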
T3 sequence (whole entry): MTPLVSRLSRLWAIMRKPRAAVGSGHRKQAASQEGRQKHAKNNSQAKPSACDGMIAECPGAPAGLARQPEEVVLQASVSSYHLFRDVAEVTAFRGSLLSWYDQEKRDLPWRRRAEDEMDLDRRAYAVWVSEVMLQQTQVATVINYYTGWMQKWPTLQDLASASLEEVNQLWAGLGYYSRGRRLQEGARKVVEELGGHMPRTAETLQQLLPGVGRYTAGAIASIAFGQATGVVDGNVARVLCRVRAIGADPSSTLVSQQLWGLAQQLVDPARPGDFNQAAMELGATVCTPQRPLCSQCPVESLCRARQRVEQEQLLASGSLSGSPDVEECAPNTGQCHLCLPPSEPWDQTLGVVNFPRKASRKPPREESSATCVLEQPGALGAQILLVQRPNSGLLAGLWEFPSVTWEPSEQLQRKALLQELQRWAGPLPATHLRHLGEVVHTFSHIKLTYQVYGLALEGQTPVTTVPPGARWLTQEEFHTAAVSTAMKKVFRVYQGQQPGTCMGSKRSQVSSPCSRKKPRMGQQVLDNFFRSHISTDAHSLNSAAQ
Description: Inhibition of MUTYH by quantifying inhibition of MUTYH-mediated cleavage and dissociation of quenched duplex DNA oligonucleotides, measured as fluorescence at 594 nm. To generate a functional strand incision and increase turn-over this assay is coupled to APE1.

[8] = target: G/T mismatch-specific thymine DNA glycosylase (Homo sapiens) (UniProt Q13569);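 note: human TDG cleavage of quenched duplex DNA oligonucleotides coupled to APE1, strand release read as fluorescence at 594 nm, inhibition of TDG activity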
Chain of G/T mismatch-specific thymine DNA glycosylase (Homo sapiens) (Q13569 whole entry): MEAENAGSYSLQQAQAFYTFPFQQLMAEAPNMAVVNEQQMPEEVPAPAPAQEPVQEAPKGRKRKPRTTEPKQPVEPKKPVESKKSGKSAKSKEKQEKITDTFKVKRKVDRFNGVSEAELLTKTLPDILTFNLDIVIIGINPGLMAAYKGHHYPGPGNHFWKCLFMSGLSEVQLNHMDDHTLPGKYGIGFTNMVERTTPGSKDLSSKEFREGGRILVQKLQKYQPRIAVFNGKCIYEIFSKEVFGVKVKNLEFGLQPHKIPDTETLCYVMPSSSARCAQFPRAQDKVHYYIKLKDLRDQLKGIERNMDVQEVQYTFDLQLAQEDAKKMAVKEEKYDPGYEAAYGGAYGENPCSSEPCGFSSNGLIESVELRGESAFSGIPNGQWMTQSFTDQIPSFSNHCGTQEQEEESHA
Description: Inhibition of TDG by quantifying inhibition of TDG-mediated cleavage and dissociation of quenched duplex DNA oligonucleotides, measured as fluorescence at 594 nm. To generate a functional strand incision and increase turn-over this assay is coupled to APE1.

[9] = Compound Concentration 10.0 uM, tested as the 2H-labelled form

Chain of N-glycosylase/DNA lyase (Homo sapiens) (O15527 whole entry): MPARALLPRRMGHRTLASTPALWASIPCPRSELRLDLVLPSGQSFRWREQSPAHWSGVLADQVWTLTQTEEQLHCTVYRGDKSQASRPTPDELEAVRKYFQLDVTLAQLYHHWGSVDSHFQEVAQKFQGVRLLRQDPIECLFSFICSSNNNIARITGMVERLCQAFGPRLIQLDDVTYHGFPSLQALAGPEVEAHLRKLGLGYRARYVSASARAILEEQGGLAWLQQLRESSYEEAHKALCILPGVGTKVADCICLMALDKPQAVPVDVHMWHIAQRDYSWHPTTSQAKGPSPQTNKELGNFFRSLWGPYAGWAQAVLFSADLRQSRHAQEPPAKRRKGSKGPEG
Chain of Endonuclease 8-like 1 (Homo sapiens) (Q96FI4 whole entry, the tested form may be a part): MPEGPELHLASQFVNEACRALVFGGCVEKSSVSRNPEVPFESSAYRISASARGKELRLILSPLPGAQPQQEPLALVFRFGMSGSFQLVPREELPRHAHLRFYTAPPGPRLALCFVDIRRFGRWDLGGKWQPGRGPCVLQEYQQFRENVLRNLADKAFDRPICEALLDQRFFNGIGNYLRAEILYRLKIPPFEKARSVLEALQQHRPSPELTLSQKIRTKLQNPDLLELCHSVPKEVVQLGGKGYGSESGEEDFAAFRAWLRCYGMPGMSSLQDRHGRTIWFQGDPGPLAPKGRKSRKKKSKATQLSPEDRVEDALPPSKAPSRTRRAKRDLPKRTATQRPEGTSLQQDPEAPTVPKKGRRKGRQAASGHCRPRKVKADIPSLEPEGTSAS

Row | Compound | inhibition ([1]; Compound Concentration 1.0 uM) [%] | inhibition ([3]; Compound Concentration 1.0 uM) [%] | inhibition ([4]; Compound Concentration 1.0 uM) [%] | inhibition ([5]; Compound Concentration 1.0 uM) [%] | inhibition ([6]; Compound Concentration 1.0 uM) [%] | inhibition ([7]; Compound Concentration 1.0 uM) [%] | inhibition ([8]; Compound Concentration 1.0 uM) [%] | inhibition ([1]; Compound Concentration 10.0 uM) [%] | inhibition ([4]; Compound Concentration 10.0 uM) [%] | inhibition ([6]; Compound Concentration 10.0 uM) [%] | inhibition ([7]; Compound Concentration 10.0 uM) [%] | inhibition ([8]; Compound Concentration 10.0 uM) [%] | inhibition ([3]; Compound Concentration 10.0 uM) [%] | inhibition ([5]; Compound Concentration 10.0 uM) [%] | also measured
1 | Cc1nc(Cc2cccc(C(F)(F)F)c2)sc1-c1ccc(C(N)=O)nc1 | 0.0328 | 52 | -0.747 | -3.29 | 6 | -2.4 | 96.5 | – | – | – | – | – | – | – | inhibition ([2]; Compound Concentration 1.0 uM): -5.59%
2 | Nc1c(C(=O)NCc2ccc(C(=O)NCCCC3CCCCC3)cc2)cnn1-c1ccccc1 | 3.23 | 59.9 | -7.24 | -8.91 | 3.4 | – | 47 | 19.8 | 4.78 | -1.31 | 5.04 | 35.6 | – | – | inhibition ([2]; Compound Concentration 1.0 uM): -2.11%
3 | CCOC(=O)c1cc2cc(-c3cc(C(=O)NCc4ccc(C(=O)O)cc4)nn3C)ccc2[nH]1 | 9.53 | 61 | -2.54 | 11.2 | 6.69 | -1.36 | 41.7 | – | – | – | – | – | – | – | inhibition ([2]; Compound Concentration 1.0 uM): -4.68%
4 | CCCOc1ccc([C@@H]2[C@@H](C(=O)O)[C@H](c3ccc4c(c3)OCO4)CN2CC(=O)Nc2c(CC)cccc2CC)cc1 | 12 | 66.2 | 4.27 | 9.71 | 18.8 | -8.3 | 57.1 | – | – | – | – | – | – | – | inhibition ([2]; Compound Concentration 1.0 uM): -3.17%
5 | O=C(NCc1ncc(C(F)(F)F)cc1Cl)c1ccc2c(c1)C1(CCS(=O)(=O)CC1)[C@H](C1CC1)N2S(=O)(=O)c1ccc(F)cc1 | -6.07 | 59.6 | -0.35 | -0.744 | -4 | 2.13 | 38.8 | – | – | – | – | – | – | – | –
6 | CC(=O)C1=C(C)N(c2cccc(C(F)(F)F)c2)C(=O)N[C@H]1c1ccc(C#N)nc1 | – | – | – | – | – | – | – | -1.74 | -0.968 | 10.2 | -5.95 | 45.5 | 60.5 | 6.4 | –
7 | CCO[C@@H](Cc1ccc(OCCc2ccc(OS(C)(=O)=O)cc2)cc1)C(=O)O | – | – | – | – | – | – | – | 7.36 | 1.73 | 20.9 | -4.86 | 43.6 | 65.1 | -6.87 | –
8 | C[C@@H](NC(=O)Nc1cc2[nH]ncc2c(CO)n1)c1ccccc1 | – | – | – | – | – | – | – | 4.45 | 3.78 | 21.2 | 3.93 | 70.5 | 29.7 | -3.37 | –
9 | COc1cc2c(cc1CC=C(C)C)C(=O)C[C@@H](c1ccc(O)cc1)O2 | – | – | – | – | – | – | – | 19.1 | 0.826 | 19.4 | -5.24 | 49.3 | 61.9 | -5.59 | –
10 | O=C(c1cc2c(cc1F)OC(c1ccc(F)cc1)(c1ccc(Cl)cc1Cl)O2)N1CCOCC1 (stereo not drawn) | – | – | – | – | – | – | – | -5.3 | -5.46 | 5.83 | 25.5 | 17.8 | -9.38 | 8.5 | inhibition ([2]; Compound Concentration 10.0 uM): 3.95%
11 | O=C(NNS(=O)(=O)c1ccccc1)c1cc(-c2ccnnc2)ccc1F | – | – | – | – | – | – | – | 8.54 | 6.08 | 13.8 | 0.332 | 49.7 | 88.3 | 5.38 | inhibition ([2]; Compound Concentration 10.0 uM): -4.38%
12 | O=C(Nc1nc2cccc(-c3ccc(CN4CCS(=O)(=O)CC4)cc3)n2n1)C1CC1 | – | – | – | – | – | – | – | 1.15 | 2.98 | 27.3 | 3.59 | 66.4 | -0.894 | -1.92 | inhibition ([2]; Compound Concentration 10.0 uM): -4.22%
13 | COc1cc(-c2cn([C@H]3CCc4c(F)cccc4N(CC(F)(F)F)C3=O)nn2)ccc1-n1cnc(C)c1 | – | – | – | – | – | – | – | 6.38 | 4.8 | 19.7 | 0.879 | 47.4 | 40 | 11.2 | inhibition ([2]; Compound Concentration 10.0 uM): -9.83%
14 | COc1cc(Nc2ncc3c(n2)-c2ccc(Cl)cc2C(c2c(F)cccc2OC)=NC3)ccc1C(=O)O | 4.44 | 19.9 | -1.28 | -9.46 | 19.5 | -7.52 | 47.7 | – | – | – | – | – | – | – | inhibition ([2]; Compound Concentration 1.0 uM): -3.03%
15 | CC[C@H](CO)Nc1nc(NCc2ccccc2)c2ncn(C(C)C)c2n1 | – | – | – | – | – | – | – | -9.3 | 0.726 | -5.13 | -2.91 | 38.4 | -1.52 | -5.42 | inhibition ([2]; Compound Concentration 10.0 uM): 6.48%
16 | CC1(C)Cn2nc(-c3ccc(F)cn3)c(-c3ccnc4[nH]ncc34)c2CO1 | – | – | – | – | – | – | – | – | – | – | – | – | – | – | inhibition [1, 9]: -6.31%; inhibition [3, 9]: 55.2%; inhibition [4, 9]: 0.65%; inhibition [5, 9]: -8.4%; inhibition [6, 9]: 12.7%; inhibition [7, 9]: -5.13%; inhibition [8, 9]: 99.8%
17 | CN1CCN(c2cnc3c(C4CCN(C(=O)c5ccc(OC(F)(F)F)cc5N)CC4)ncnc3c2)CC1 | – | – | – | – | – | – | – | -1.54 | 5.02 | 11.7 | 2.58 | 43.6 | 22.6 | -8.19 | inhibition ([2]; Compound Concentration 10.0 uM): -2.58%
18 | Cc1nc(-c2cn3c(n2)-c2ccc(-c4cnn(C(C)(C)C(N)=O)c4)cc2OCC3)n(C(C)C)n1 | 1.09 | -2.34 | 0.537 | -7.57 | 19.2 | 3.04 | 60 | – | – | – | – | – | – | – | –
19 | CC(=O)c1c(C)c2cnc(Nc3ccc(N4CCNCC4)cn3)nc2n(C2CCCC2)c1=O | 4.49 | -1.7 | 3.08 | 2.12 | 19.2 | 37.5 | 39.5 | – | – | – | – | – | – | – | inhibition ([2]; Compound Concentration 1.0 uM): 8.59%
20 | CCS(=O)(=O)c1cc2cc(C[C@@](O)(CC(C)(C)c3ccc(F)cc3C(N)=O)C(F)(F)F)[nH]c2cn1 | -3.12 | 66.5 | -1.88 | -6.61 | 5.35 | -2.67 | 28.1 | – | – | – | – | – | – | – | –
21 | Cn1nc(C(F)(F)F)cc1-c1cnc(N2CCc3cc(S(=O)(=O)Nc4c(F)cc(Cl)cc4F)cc(N4CCCC4=O)c32)nc1 | – | – | – | – | – | – | – | 12.6 | 1.37 | 9.91 | 17.9 | 53.9 | 59.5 | 4.87 | –
22 | NC(=O)c1ccc2nc(-c3ccc(C4(N)CCC4)cc3)c(-c3ccccc3)n2n1 | 4.13 | 31.7 | 3.74 | -7.61 | 21.7 | 26.6 | 71.4 | – | – | – | – | – | – | – | –
23 | C[C@@H]1CN(c2ncc(Cl)c(Nc3ccc4c(c3)n(CCC(C)(C)O)c(=O)n4C)n2)C[C@H](C)C1(F)F | – | – | – | – | – | – | – | -2.08 | 9.4 | 18 | 2.19 | 57.5 | 66.3 | -9.67 | –
24 | O=C(Cc1ccccc1)Nc1nnc(N2C[C@H]3C[C@@H]2CN3c2cccnn2)s1 | 0.672 | 62 | 2.12 | – | 13.8 | -1.58 | 47.1 | – | – | – | – | – | – | – | inhibition ([2]; Compound Concentration 1.0 uM): 2.13%
25 | CCC(=O)N[C@H]1CC[C@@H](C(=O)N(C)c2ccc(-c3nc4ccccc4o3)cc2)C1 | – | – | – | – | – | – | – | -8.13 | -2.88 | 9.01 | 8.31 | 41.7 | 62.4 | 8.7 | –
26 | CCNC(=O)c1cc2c(N3CCOC[C@@H]3C)ccnc2n1C | – | – | – | – | – | – | – | 11.4 | -0.625 | 6.82 | -5.18 | 31.4 | 67 | -9.42 | –

— ChEMBL document CHEMBL5665443, “Enzyme Inhibitor Single Concentration assay results for EUbOPEN Chemogenomics Library” (2024)
